Assay [1] has as its system A. brassicicola. It is filed as cell-based, Alternaria brassicicola. Particulars: for 50% growth inhibitory concentration (IC50): 48 h. An excerpt:
(§1) Next, we assessed the potential antifungal activity of At25 (ARACIN1) and At20 (ARACIN2) by an in vitro antifungal bioassay. Both propeptide and mature forms of At25 and At20 were produced by chemical synthesis (see Materials and Methods) and tested against A. brassicicola, B. cinerea B05-10 and B. cinerea Korea by means of a microtiter broth dilution assay (FIG. 9).
(§2) 11. Antifungal Activity Assay
(§3) Synthetic proAt25 peptide, mature At25 peptide, proat20 and mature At20 peptides were purchased from genscript (on the World Wide web at genscript.com). Stock solutions of 2×10^7 spores/ml of Botrytis cinerea B05-10, Botrytis cinerea Korea, Fusarium oxysporum and Alternaria brassicicola were diluted in ½ PDB (12 g/l Potato Dextrose Broth in water) to a final concentration of 2×10^4 spores/ml. After adding 196 μl aliquots of these spore dilutions to 4 μl of 2-fold dilution series of At25 in DMSO (starting from a 100 μg/ml stock solution) in microtiter plates, the plates were incubated on 23° C. for 48 h. DMSO was used as a negative control. Growth of the fungi was evaluated both microscopically and by measuring the OD600. Each fungus was tested in duplicate in the microtiter plates. Additionally, for Alternaria brassicicola this antifungal assay was repeated twice. For each assay, the average OD600 of each dilution and the DMSO control were compared using a t-test.

Assay [2] relates to B. cinerea B05-10. In kind it is cell-based, Botrytis cinerea.
From the text: as §1, §2, §3

The test system of assay [3] is B. cinerea Korea. In kind it is cell-based, Botrytis cinerea. Particulars: for growth inhibition: Korea.
From the text: as §1, §2, §3

Where two headings read alike, the source gives them in different places.

As to “NH2-RRSDTGPDISTPPSGSCGASIAE FNSSQILAKRAPPCRRPRLQNSEDVTHTTLP-COOH (H-RRSDTGPDISTPPSGSCGASIAEFNSSQILAKRAPPCRRPRLQNSEDVTHTTLP-OH; cysteine pairing not given here; listed as Arabidopsis thaliana) [proAt25]”, the “inhibitory activity (in words)” value in assay [1] (A. brassicicola, data not shown) was “no statistically significant inhibitory activities”; in assay [2] (B. cinerea B05-10, data not shown) it was “no statistically significant inhibitory activities”; in assay [3] (B. cinerea Korea, data not shown) it was “no statistically significant inhibitory activities”.
For the substance “H-GSCGASIAEFNSSQILAKRAPPCRRPRLQNSEDVTHTTLP-OH (cysteine pairing not given here) [mature At25]”, the “50% growth inhibitory concentration (IC50)” value in assay [1] was 5.46 ± 0.57 µg/mL; in assay [2] (B05-10, 48 h) it was 3.05 ± 0.25 µg/mL; in assay [3] (B. cinerea Korea, 48 h, 23° C., OD600) it was 2.03 ± 0.44 µg. Besides, the “concentration from which growth inhibition / statistically significant antifungal effect starts” value in assay [1] (A. brassicicola) was found to be 1 µg/mL. The growth inhibition in assay [2] (B05-10, 10 μg mL^−1) came out at 95.7%; in assay [3] (10 μg mL^−1) it was 94%.
Consider “NH2-SIPDDDMGPAIYTPPSGSCGA PISKYDFQVLAKRPPPCRRPRLENTEDVTHTTRP-COOH [proAt20]”, for which the growth inhibition in assay [1] (5 μg mL^−1) is 36.7%; in assay [2] (B05-10, 20 μg mL^−1) it was 62%; in assay [3] (20 μg mL^−1), 64.8%. Besides, the “50% growth inhibitory concentration (IC50)” value in assay [1] stood at 11.32 ± 1.28 µg/mL. In assay [1] (A. brassicicola), the “concentration from which growth inhibition / statistically significant antifungal effect starts” value amounted to 5 µg/mL. Moreover, the “concentration from which statistically significant antifungal effect starts” value in assay [2] (B. cinerea B05-10) and in assay [3] (B. cinerea Korea) was 20 µg/mL throughout.
“H-GSCGAPISKYDFQVLAKRPPPCRRPRLENTEDVTHTTRP-OH (cysteine pairing not given here) [mature At20]”: the “50% growth inhibitory concentration (IC50)” value in assay [1] is 1.55 ± 0.11 µg/mL. The “reduction of IC50 value compared with the propeptide (proAt20)” value in assay [1] (A. brassicicola, mature At20 versus proAt20) was 86%. Besides, the “antifungal activity in comparison with proAt20 (in words)” value in assay [2] (B. cinerea B05-10) and in assay [3] (B. cinerea Korea) was “remarkably increased” in each case.
